In publication PMC6009933, “Discovery of novel dual inhibitors of receptor tyrosine kinases EGFR and IGF-1R” (Journal of Enzyme Inhibition and Medicinal Chemistry, 2017):

Key:
[1] = target: T1, IGF-1R (Homo sapiens, UniProt P08069); experiment: Receptor tyrosine kinase inhibition, 33P-ATP FlashPlate assay (IGF-1R); type: biochemical; conditions: for Ki: recombinant GST fusion kinase, substrate Poly(Glu,Tyr)4:1, Ki from IC50, Km ATP 2.52 µM
T1 construct: GST; made in house; host or cells: Sf9 insect cells (baculovirus)
Method: (§1) The protein kinases were expressed by means of the baculovirus expression system in Sf9 insect cells as human recombinant GST fusion proteins and purified by affinity chromatography using GSH-agarose. The kinase identity was confirmed by mass spectrometry using LC-ESI-MS/MS technique.
(§2) The measuring of protein kinase activity was performed in 96-well FlashPlates^TM from Perkin Elmer in a 50 µL reaction volume. The reaction mixture consisted of 20 µL of assay buffer solution, 5 µL of ATP solution in water, 5 µL of used test compound in a 10% DMSO solution and finally a premixture of each 10 µL of used substrate and enzyme solutions. The assay buffer solution contained 70 mM of HEPES-NAOH pH 7.5, each 3 mM of magnesium chloride and manganese(II) chloride, 3 µM of sodium orthovanadate, 1.2 mM of DTT, 50 µg/mL of PEG20000 and finally 15 µM of [γ-^33P]-ATP making approximately 7 × 10^5 cpm per well.
(§3) The final kinase concentration has been 10 ng/50 µL for EGFR and IGF-1R. The used substrate was Poly(Glu,Tyr)4:1 in a concentration of 125 ng/50 µL.
(§4) The reaction mixtures were incubated at 30 °C for 60 min. The reaction was stopped with 50 µL of a 2% (v/v) solution of phosphoric acid. Then, the plates were aspirated and washed twice with 200 µL of water or 0.9% solution of sodium chloride. The incorporation of ^33Pi was determined with a microplate scintillation counter. Ten different inhibitor concentrations were measured in a range of 3 nM to 100 µM. The residual activity (%) and the IC50 values were finally calculated. From the IC50 values, the affinity constants Ki were determined using the equation: IC50 = 1/2 [Etotal] + Ki× (1 + [S]/Km) following a competitive inhibitor binding mode[18]. The used Km values for ATP have been measured with 1.3 µM for EGFR and with 2.52 µM for IGF-1R (Table 1).

[2] = target: T2, EGFR (Homo sapiens, UniProt P00533); experiment: Receptor tyrosine kinase inhibition, 33P-ATP FlashPlate assay (EGFR); type: biochemical; conditions: recombinant GST fusion kinase, substrate Poly(Glu,Tyr)4:1, Ki from IC50, Km ATP 1.3 µM
T2 construct: GST; made in house; host or cells: Sf9 insect cells (baculovirus)
Method: as §1, §2, §3, §4

[3] = test system: IGF-1R; design: method as in PMID 23639757; conditions: cited from earlier work

T2 sequence (P00533 25-1210): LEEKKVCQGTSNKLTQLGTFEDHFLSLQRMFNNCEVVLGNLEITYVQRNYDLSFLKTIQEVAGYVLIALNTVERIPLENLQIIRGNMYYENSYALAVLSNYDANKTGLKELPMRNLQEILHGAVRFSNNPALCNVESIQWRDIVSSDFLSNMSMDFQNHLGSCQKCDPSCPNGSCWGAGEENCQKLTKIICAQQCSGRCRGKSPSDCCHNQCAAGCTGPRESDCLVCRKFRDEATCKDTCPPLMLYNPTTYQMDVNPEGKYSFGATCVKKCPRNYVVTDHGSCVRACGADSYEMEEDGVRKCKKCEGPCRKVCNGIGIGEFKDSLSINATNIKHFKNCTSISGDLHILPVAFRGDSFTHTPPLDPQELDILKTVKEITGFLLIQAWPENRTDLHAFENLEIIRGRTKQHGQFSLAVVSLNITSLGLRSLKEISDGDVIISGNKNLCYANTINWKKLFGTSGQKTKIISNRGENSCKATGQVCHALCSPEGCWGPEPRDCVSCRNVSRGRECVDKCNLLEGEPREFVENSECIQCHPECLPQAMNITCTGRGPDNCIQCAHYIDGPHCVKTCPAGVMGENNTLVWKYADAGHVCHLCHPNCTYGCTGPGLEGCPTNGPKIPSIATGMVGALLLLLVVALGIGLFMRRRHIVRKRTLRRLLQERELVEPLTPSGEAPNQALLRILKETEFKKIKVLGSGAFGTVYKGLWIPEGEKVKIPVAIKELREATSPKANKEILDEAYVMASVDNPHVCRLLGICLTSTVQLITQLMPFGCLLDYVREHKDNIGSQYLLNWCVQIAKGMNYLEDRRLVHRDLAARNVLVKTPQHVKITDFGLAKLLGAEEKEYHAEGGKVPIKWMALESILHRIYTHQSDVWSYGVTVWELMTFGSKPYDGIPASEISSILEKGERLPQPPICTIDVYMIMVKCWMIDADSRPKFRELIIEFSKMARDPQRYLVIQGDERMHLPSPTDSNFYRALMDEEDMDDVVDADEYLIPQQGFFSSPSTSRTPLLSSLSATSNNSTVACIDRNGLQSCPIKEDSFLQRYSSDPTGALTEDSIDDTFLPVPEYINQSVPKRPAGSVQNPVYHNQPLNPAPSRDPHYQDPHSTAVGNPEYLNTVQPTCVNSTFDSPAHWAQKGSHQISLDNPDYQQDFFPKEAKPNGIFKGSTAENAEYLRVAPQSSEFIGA
T1 sequence (P08069 31-1367): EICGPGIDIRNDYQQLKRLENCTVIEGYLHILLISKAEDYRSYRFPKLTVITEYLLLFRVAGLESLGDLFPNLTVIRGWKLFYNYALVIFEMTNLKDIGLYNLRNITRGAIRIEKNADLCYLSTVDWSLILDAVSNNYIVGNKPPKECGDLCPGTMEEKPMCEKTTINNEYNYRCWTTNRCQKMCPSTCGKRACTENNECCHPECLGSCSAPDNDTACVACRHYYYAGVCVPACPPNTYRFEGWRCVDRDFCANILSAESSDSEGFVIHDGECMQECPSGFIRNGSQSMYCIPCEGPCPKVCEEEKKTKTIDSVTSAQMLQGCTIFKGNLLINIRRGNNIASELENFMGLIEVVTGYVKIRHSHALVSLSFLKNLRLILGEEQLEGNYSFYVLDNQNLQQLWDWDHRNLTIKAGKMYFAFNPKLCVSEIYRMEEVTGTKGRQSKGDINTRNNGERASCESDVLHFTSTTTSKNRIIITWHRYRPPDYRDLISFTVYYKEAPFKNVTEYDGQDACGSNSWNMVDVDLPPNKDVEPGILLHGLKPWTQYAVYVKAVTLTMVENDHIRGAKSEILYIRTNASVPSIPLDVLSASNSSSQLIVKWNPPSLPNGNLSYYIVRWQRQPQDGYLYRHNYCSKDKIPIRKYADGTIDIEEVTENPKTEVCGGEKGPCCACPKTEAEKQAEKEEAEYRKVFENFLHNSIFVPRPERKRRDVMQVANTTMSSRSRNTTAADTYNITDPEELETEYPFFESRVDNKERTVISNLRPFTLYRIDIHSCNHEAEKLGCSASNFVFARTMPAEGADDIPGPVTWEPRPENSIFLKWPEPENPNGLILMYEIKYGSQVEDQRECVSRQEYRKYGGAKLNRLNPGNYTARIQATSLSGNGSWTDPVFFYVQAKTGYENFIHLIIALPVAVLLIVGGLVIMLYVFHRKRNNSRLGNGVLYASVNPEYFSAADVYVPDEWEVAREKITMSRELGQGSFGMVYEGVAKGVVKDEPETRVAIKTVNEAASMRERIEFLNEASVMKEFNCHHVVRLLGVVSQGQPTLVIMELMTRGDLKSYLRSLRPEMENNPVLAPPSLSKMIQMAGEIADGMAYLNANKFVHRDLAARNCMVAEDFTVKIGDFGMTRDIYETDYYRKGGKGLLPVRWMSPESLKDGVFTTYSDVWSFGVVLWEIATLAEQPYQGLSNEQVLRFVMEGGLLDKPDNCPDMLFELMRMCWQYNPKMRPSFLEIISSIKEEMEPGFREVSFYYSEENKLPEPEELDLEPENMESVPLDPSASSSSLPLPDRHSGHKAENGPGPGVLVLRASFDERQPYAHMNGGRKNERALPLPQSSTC

Structure (SMILES)	Ki [1]	Ki [2]	further results
Clc1ccc(CNc2ccnc3[nH]c4ccc(Br)cc4c23)cc1 [Compound 5f, N^4–(4-Chlorobenzyl)-6-bromo-9H-pyrido[2,3-b]indole-4-amine]	2290 ± 43 nM		Ki values EGFR [2]: lost
C#Cc1cccc(Nc2ncnc3cc(OCCOC)c(OCCOC)cc23)c1 [erlotinib]			activity toward IGF-1R (erlotinib) [3]: no activity
Brc1cccc(CNc2ccnc3[nH]c4ccc(Br)cc4c23)c1 [Compound 5c, N^4–(3-Bromobenzyl)-6-bromo-9H-pyrido[2,3-b]indole-4-amine]	2960 ± 37 nM	255 ± 18 nM	
COc1cccc(CNc2ccnc3[nH]c4ccc(Br)cc4c23)c1 [Compound 5a, N^4–(3-Methoxybenzyl)-6-bromo-9H-pyrido[2,3-b]indole-4-amine]	9840 ± 238 nM	344 ± 24 nM	
COc1cccc(CNc2ccnc3[nH]c4ccc(C(=O)O)cc4c23)c1 [Compound 7]	2360 ± 132 nM	140 ± 28 nM	affinity towards IGF-1R relative to corresponding 6-cyano compound 6a ([1]; fold comparison of Ki with 6a): almost tenfold lower
Clc1cccc(CNc2ccnc3[nH]c4ccc(Br)cc4c23)c1 [Compound 5b, N^4–(3-Chlorobenzyl)-6-bromo-9H-pyrido[2,3-b]indole-4-amine]	3470 ± 71 nM	361 ± 35 nM	

Now from value to compound, other results behind:

Ki [1]	Ki [2]	Structure (SMILES)	further results
390 ± 16 nM	160 ± 15 nM	Cc1ccc(CNc2ccnc3[nH]c4ccc(C#N)cc4c23)cc1 [Compound 6c, 4–(4-Methylbenzyl)amino-9H-pyrido[2,3-b]indole-6-carbonitrile]	
884 ± 25 nM	448 ± 72 nM	Brc1ccc(CNc2ccnc3[nH]c4ccc(Br)cc4c23)cc1 [Compound 5g, N^4–(4-Bromobenzyl)-6-bromo-9H-pyrido[2,3-b]indole-4-amine]	
269 ± 22 nM	158 ± 26 nM	COc1ccc(CNc2ccnc3[nH]c4ccc(C#N)cc4c23)cc1 [Compound 6b, 4–(4-Methoxybenzyl)amino-9H-pyrido[2,3-b]indole-6-carbonitrile]	
2230 ± 22 nM	1170 ± 57 nM	COc1ccc(CNc2ccnc3[nH]c4ccc(Br)cc4c23)cc1 [Compound 5e, N^4–(4-Methoxybenzyl)-6-bromo-9H-pyrido[2,3-b]indole-4-amine]	
288 ± 26 nM	72 ± 17 nM	COc1cccc(CNc2ccnc3[nH]c4ccc(C#N)cc4c23)c1 [Compound 6a, 4–(3-Methoxybenzyl)amino-9H-pyrido[2,3-b]indole-6-carbonitrile]	affinity towards IGF-1R relative to corresponding 6-bromo compound 5a ([1]; fold comparison of Ki with 5a): more than thirtyfold higher
537 ± 22 nM	101 ± 11 nM	Nc1cccc(CNc2ccnc3[nH]c4ccc(Br)cc4c23)c1 [Compound 5d, N^4–(3-Aminobenzyl)-6-bromo-9H-pyrido[2,3-b]indole-4-amine]	
697 ± 15 nM	279 ± 91 nM	Cc1ccc(CNc2ccnc3[nH]c4ccc(Br)cc4c23)cc1 [Compound 5h, N^4–(4-Methylbenzyl)-6-bromo-9H-pyrido[2,3-b]indole-4-amine]	
